# From patent US4871748A, “Phenylpropargylamine derivatives” (May & Baker Limited, priority 1984, dated 1989)
# Experiment: Acute Oral Toxicity in Mice (Laboratory Strain)
# Conditions: mouse, in vivo, aqueous suspension, mg/kg animal body weight, observed until no deaths for at least three days
# Procedure: Acute Oral Toxicity in Mice (Laboratory Strain)
# Groups of mice were dosed orally with graded doses of the test compound in aqueous suspension and observed until there had been no deaths for at least three days. The acute oral LD50, that is to say the dose in mg/kg animal body weight necessary to kill 50% of the mice, was determined from the numbers of animals for each dose which died during the observation period by reference to published tables.
row,Structure (SMILES),LD50 [mg/kg]
1,"CC(=O)O.CC(C)(CO)C1CCN(CC#Cc2cc(C(F)(F)F)cc(C(F)(F)F)c2)CC1 [1 (as acetate), 1-(3,5-bistrifluoromethylphenyl)-3-[4-(1,1-dimethyl-2-hydroxyethyl)piperidino]prop-1-yne acetate]",95
2,"CC(C)(CO)C1CCN(CC#Cc2cc(C(F)(F)F)cc(C(F)(F)F)c2)CC1 [1 (as free base), 1-(3,5-bistrifluoromethylphenyl)-3-[4-(1,1-dimethyl-2-hydroxyethyl)piperidino]prop-1-yne]",78
3,"CC(C)(CO)C1CCN(CC#Cc2cc(C(F)(F)F)cc(C(F)(F)F)c2)CC1.Cl [1 (as hydrochloride), 1-(3,5-bistrifluoromethylphenyl)-3-[4-(1,1-dimethyl-2-hydroxyethyl)piperidino]-prop-1yne hydrochloride]",62
4,"CC(C)(CO)C1CCN(CC#Cc2cc(C(F)(F)F)cc(C(F)(F)F)c2)CC1.O=[N+]([O-])O [1 (as nitrate), 1-(3,5-bistrifluoromethylphenyl)-3-[4-(1,1-dimethyl-2-hydroxyethyl)piperidino]prop-1-yne nitrate]",72
5,"CC(C)(CO)C1CCN(CC#Cc2cc(C(F)(F)F)cc(C(F)(F)F)c2)CC1.NS(=O)(=O)O [1 (as sulphamate), 1-(3,5-bistrifluoromethylphenyl)-3-[4-(1,1-dimethyl-2-hydroxyethyl)piperidino]prop-1-yne sulphamate]",72
6,"COCC(C)(C)C1CCN(CC#Cc2cc(C(F)(F)F)cc(C(F)(F)F)c2)CC1.Cl [2 (as hydrochloride), 1-(3,5-bistrifluoromethylphenyl)-3-[4-(1,1-dimethyl-2-methoxyethyl)piperidino]prop-1-yne hydrochloride]",68
7,"CC(=O)OCC(C)(C)C1CCN(CC#Cc2cc(C(F)(F)F)cc(C(F)(F)F)c2)CC1.Cl [3 (as hydrochloride), 1-(3,5-bistrifluoromethylphenyl)-3-[4-(1,1-dimethyl-2-acetyloxyethyl)piperidino]prop-1-yne hydrochloride]",68
8,"CC(C)(C=O)C1CCN(CC#Cc2cc(C(F)(F)F)cc(C(F)(F)F)c2)CC1.Cl [4 (as hydrochloride), 1-(3,5-bistrifluoromethylphenyl)-3-[4-(1,1-dimethyl-2-oxoethyl)piperidino]prop-1-yne hydrochloride]",68
